Data published in US12048306B1, “1,3-bis(naphthalen-1-yloxy)propan-2-one as an eco-friendly insecticidal agent against Spodoptera littoralis (boisd.)” (priority 2023, dated 2024).
≈ marks a conversion by molar mass, not a printed value. Where two headings read alike, the source gives them in different places.

Experiments:
[1] = tested on: Spodoptera littoralis; assay: Insecticidal leaf dip bioassay on S. littoralis larvae; conditions: for Toxicity ratio: 72 hours, fenoxycarb's LC50 / the compound's LC50; for LC50: Spodoptera littoralis, foliar, laboratory strain, 72 hours of treatment
Procedure: (§1) Five concentrations (200, 100, 50, 25, 12.5 ppm) were designed for this synthetic compound and the reference fenoxycarb's compound as the dynamic ingredients based on ppm via diluting the commercial formulation.
(§2) In this experiment, the synthetic compound was tested for its insecticidal bioactivity using the industry-standard leaf dip bioassay techniques. […] Until usage, the stocks were kept in a refrigerator. The target substance test results were noted & the concentrations needed to destroy 50% (LC50) of S. littoralis larvae were calculated. The target compound was employed in five different concentrations, & 0.1% Tween 80 was employed as a surfactant. Castor bean leaf discs (nine centimeters in diameter) were dipped in the concentration under test for ten seconds, then fed to 2th & 4th larvae, which were roughly the same size and housed in glass jars (five pound). Each action carried out 3 times with ten larvae each. The mortality equalized via Abbott's formula. Calculations of mortality setback line were measurably rummage via probity analysis. Harmfulness index was strongminded via sun equations. The mortality results of larval insect were estimated through employing probit analysis through a statistics (LDP-line) equation which estimate the LC50 values with 95% fiducially limits of lower, upper confidence limit and slope.

[2] = tested on: Spodoptera littoralis; conditions: in vivo
Procedure: as §1, §2

[3] = tested on: aquatic insects; conditions: highly toxic to very highly toxic; cited from earlier work

SMILES | Toxicity ratio ([1]; 2nd instar larvae) | Toxicity ratio ([1]; 4th instar larvae) | LC50 ([1]; 72 h, 2nd instar larvae) [µg/mL] | LC50 ([1]; 72 h, 4th instar larvae) [µg/mL] | insecticidal activity against Spodoptera littoralis ([1]; 2nd and 4th instar larvae, 72 h, FIGS. 1A-1B, compared with the reference insecticide) | LC50 [2] | LC50 [3] [µg/mL]
CCOC(=O)NCCOc1ccc(Oc2ccccc2)cc1 [Fenoxycarb, fenoxycarb, reference compound] | 1 | 1 | 2.73 (≈ 9.06 µM) | 9.18 (≈ 30.5 µM) | – | – | –
O=C(COc1cccc2ccccc12)COc1cccc2ccccc12 [III, 1,3-bis(naphthalen-1-yloxy)propan-2-one] | 0.241 | 0.515 | 11.3 (≈ 33.1 µM) | ~17.8 (≈ 52 µM) | active | about 11.32 mg/L | –
CCc1ccc(C(=O)NN(C(=O)c2cc(C)cc(C)c2)C(C)(C)C)cc1 [tebufenozide] | – | – | – | – | – | – | 100 to 1000
